Measured values from patent US20100104511A1, “METHODS AND COMPOSITIONS USING CHELATOR-ANTIBODY CONJUGATES” (priority 2006, published 2010).

Assays:
Test in all cases: Apoptosis by Annexin-V-Fluos staining and flow cytometry
MDA-MB-231 cells = conditions: MDA-MB-231, 10 μM, 72 hours
Protocol: (§1) In vitro Analysis of Apoptosis. […] The cells were washed in PBS. Cell suspension was then stained with Annexin-V-Fluos (Roche Diagnostics, Mannheim, Germany) for 30 minutes before labeled cells were quantitated by flow cytometry (EpicsXL; Beckman Coulter, MarmiMiami, Fla., USA).

H3255 cells = conditions: H3255, 10 μM, 72 hours
Protocol: as §1

H441 cells = conditions: H441, 10 μM, 72 hours
Protocol: as §1

COc1cc2ncnc(Nc3ccc(F)c(Cl)c3)c2cc1OCCCN1CCOCC1 [gefitinib]
apoptosis percentage after deducting DMSO control (MDA-MB-231 cells): 6.92%
apoptosis percentage after deducting DMSO control (H3255 cells): 25.86%
apoptosis percentage after deducting DMSO control (H441 cells): 8.13%
